System: treatment-naïve DME eyes
Format: in vivo, human
Experimental: A study was conducted to evaluate suprachoroidal CLS-TA in combination with intravitreal aflibercept, compared to aflibercept monotherapy for DME. SCS injections target chorioretinal tissues more directly than intravitreal injections while limiting exposure to the anterior chamber, thereby offering potential safety, efficacy, and durability advantages. The study was a Phase 2, multicenter, randomized, double-masked, controlled, 24-week study in treatment-naïve DME eyes (eligibility: CST >300 μm; 20-70 ETDRS letters) randomized 1:1 to CLS-TA+aflibercept or aflibercept monotherapy. Patients in the combination arm (n=36) received CLS-TA and aflibercept at baseline & week 12 ([…]). Patients in the monotherapy arm (n=35) received aflibercept at baseline, W4, W8 and […]. […] The study is referred to as the TYBEE study in some embodiments herein.

Substance: aflibercept
- eyes with macular edema resolved (<300 μm) (W4): 21%
- mean CST change (W24): −176 μm
- gain in BCVA letters from baseline (W24, per protocol arms): +13.5 letters
- mean PRN aflibercept treatments (at W16 & W20): 0.7
- cataract observed (in vivo): 2.9%
- elevated IOP observed (in vivo): 2.9%
- treatment-related serious AEs (in vivo): No treatment-related serious AEs were observed
- average number of treatments (through week 24): 4.7

Reference: patent US20190269702A1, “COMPOSITIONS AND METHODS FOR TREATING NONINFECTIOUS UVEITIS” (CLEARSIDE BIOMEDICAL, INC., priority 2018, published 2019)
